These results are taken from ChEMBL document CHEMBL5032490, “Neuroactive Type-A γ-Aminobutyric Acid Receptor Allosteric Modulator Steroids from the Hypobranchial Gland of Marine Mollusk, Conus geographus” (J Med Chem, 2021).

For experiment [1], the system named is Neuron. Description: Negative allosteric modulation of mouse GABA receptor in mouse peptidergic nociceptive DRG neurons assessed as inhibition of KCl-induced response at 10 uM. In kind it is tissue-based. To be noted: filed as negative allosteric modulator.
Experiment [2] concerns the target GABA A receptor alpha-4/beta-3/gamma-2 (Homo sapiens, UniProt P18507+P28472+P48169). Description: Negative allosteric modulation activity at human GABAA alpha4beta3gamma2 stably expressed in HEK cells by patch clamp method. In kind it is cell-based. Background: Patch clamp records ionic current or voltage across a cell membrane.
Experiment [3] concerns Mus musculus. Description: Antinociceptive activity in C57BL6 mouse model of inflammatory pain assessed as total number of responses during second phase at 2 to 50 mg/kg, ip administered by formalin test. As to conditions: dose 2-50 mg/kg. Type of experiment: functional, organism-based.
Experiment [4] in a line: Induction of ATP and Kcl-induced increase in cytosolic Ca2+ ion concentration mouse […] assessed as neuron population at 10 uM measured after 1 hr by Fura2AM dye based fluorescence microscopic analysis. In kind it is functional.
Experiment [5] deals with T1, GABA A receptor alpha-1/beta-1/gamma-2 (Homo sapiens, UniProt P14867+P18505+P18507).
T1 sequence (P14867 whole entry): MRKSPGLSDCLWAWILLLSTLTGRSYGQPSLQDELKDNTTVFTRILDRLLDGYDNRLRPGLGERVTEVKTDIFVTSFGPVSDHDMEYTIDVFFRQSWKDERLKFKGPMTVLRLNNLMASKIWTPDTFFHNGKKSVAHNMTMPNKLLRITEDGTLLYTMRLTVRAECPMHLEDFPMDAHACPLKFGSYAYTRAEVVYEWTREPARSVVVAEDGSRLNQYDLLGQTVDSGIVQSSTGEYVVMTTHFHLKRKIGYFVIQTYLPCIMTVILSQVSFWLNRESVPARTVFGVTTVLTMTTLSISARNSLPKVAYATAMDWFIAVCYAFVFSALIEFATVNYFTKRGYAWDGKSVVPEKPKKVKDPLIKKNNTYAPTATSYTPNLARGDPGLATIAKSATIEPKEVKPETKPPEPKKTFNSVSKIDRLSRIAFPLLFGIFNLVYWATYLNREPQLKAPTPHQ
T1 sequence (P18507 whole entry): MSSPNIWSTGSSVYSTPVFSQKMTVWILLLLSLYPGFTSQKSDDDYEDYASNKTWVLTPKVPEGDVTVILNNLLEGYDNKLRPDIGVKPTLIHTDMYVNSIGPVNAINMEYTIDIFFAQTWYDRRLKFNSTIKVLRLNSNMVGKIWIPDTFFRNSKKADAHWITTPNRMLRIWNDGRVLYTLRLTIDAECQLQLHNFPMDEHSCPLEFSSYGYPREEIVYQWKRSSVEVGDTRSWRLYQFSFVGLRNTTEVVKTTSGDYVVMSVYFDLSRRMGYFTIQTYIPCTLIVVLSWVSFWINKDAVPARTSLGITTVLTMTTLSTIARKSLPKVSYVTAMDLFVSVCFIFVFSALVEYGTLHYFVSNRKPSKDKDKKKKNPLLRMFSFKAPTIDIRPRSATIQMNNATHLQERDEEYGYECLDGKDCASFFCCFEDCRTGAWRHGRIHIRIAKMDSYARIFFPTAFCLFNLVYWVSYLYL
T1 sequence (P18505 whole entry): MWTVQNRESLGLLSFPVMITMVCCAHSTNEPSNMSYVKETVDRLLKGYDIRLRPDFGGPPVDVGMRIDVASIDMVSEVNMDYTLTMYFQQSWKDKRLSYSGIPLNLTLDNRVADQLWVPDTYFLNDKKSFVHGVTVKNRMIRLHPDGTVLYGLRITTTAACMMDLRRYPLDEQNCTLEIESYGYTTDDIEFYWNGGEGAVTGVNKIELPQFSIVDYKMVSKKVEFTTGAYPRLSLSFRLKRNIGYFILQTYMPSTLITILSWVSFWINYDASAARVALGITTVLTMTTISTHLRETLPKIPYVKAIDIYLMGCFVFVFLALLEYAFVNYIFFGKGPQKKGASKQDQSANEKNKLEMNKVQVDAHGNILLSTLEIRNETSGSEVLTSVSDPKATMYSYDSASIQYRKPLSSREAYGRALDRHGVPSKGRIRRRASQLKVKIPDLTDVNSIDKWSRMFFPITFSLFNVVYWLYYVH
Description: Negative allosteric modulation activity at human GABAA alpha1beta1gamma2 stably expressed in HEK cells by whole cell patch clamp method. Type of experiment: cell-based.

A short description of experiment [6]: Induction of cytosolic calcium ion concentration in mouse peptidergic nociceptive DRG neuron at 10 uM measured after 1 hr by Fura2AM dye based fluorescence microscopic analysis. In kind it is functional.
Experiment [7] in a line: Induction of ATP and Kcl-induced increase in cytosolic Ca2+ ion concentration mouse non-peptidergic nociceptive DRG neuron assessed as neuron population at 10 uM measured after 1 hr by Fura2AM dye based fluorescence microscopic analysis. Type of experiment: functional.
Experiment [8] has as its system Neuron. Description: Negative allosteric modulation of human GABA receptor expressed in mouse DRG neurons assessed as inhibition of 340 nM GABA-induced responses at 0.5 uM using cold thermo-sensors. To be noted: filed as negative allosteric modulator. In kind it is tissue-based.
In experiment [9] the test system is Neuron. Description: Negative allosteric modulation of mouse GABA receptor in mouse non-peptidergic nociceptive DRG neurons assessed as inhibition of KCl-induced response at 10 uM. In kind it is tissue-based. To be noted: filed as negative allosteric modulator.
Experiment [10] relates to Neuron. Description: Negative allosteric modulation of human GABA receptor expressed in mouse DRG neurons assessed as inhibition of 340 nM GABA-induced responses at 0.5 uM using nociceptor. In kind it is tissue-based. To be noted: filed as negative allosteric modulator.
Experiment [11] is described as follows: Reduction of ATP and Kcl-induced increase in cytosolic Ca2+ ion concentration mouse non-peptidergic nociceptive DRG neuron assessed as neuron population at 10 uM measured after 1 hr by Fura2AM dye based fluorescence microscopic analysis. Also on record: scale not given: the % may be the effect or the level left. In kind it is functional.
The subject of experiment [12] is Neuron. Description: Negative allosteric modulation of mouse GABA receptor in mouse C-low-threshold mechanoreceptive DRG neurons assessed as inhibition of KCl-induced response at 40 uM. In kind it is tissue-based. To be noted: filed as negative allosteric modulator.
Experiment [13] can be described thus: Induction of ATP and Kcl-induced increase in cytosolic Ca2+ ion concentration mouse peptidergic nociceptive DRG neuron assessed as neuron population at 10 uM measured after 1 hr by Fura2AM dye based fluorescence microscopic analysis. In kind it is functional.
The nature of experiment [14]: Induction of cytosolic calcium ion concentration in mouse microglia cells at 10 uM measured after 1 hr by Fura2AM dye based fluorescence microscopic analysis. In kind it is functional.
For experiment [15], the system named is Neuron. Description: Negative allosteric modulation of human GABA receptor expressed in mouse DRG neurons assessed as inhibition of 340 nM GABA-induced responses at 0.5 uM using c-LTMRS. In kind it is tissue-based. To be noted: filed as negative allosteric modulator.
The subject of experiment [16] is Neuron. Description: Negative allosteric modulation of mouse GABA receptor in mouse C-low-threshold mechanoreceptive DRG neurons assessed as inhibition of KCl-induced response at 10 uM. Type of experiment: tissue-based. As to conditions: filed as negative allosteric modulator.
Experiment [17] in a line: Reduction of ATP and Kcl-induced increase in cytosolic Ca2+ ion concentration mouse peptidergic nociceptive DRG neuron assessed as neuron population at 10 uM measured after 1 hr by Fura2AM dye based fluorescence microscopic analysis. Also on record: scale not given: the % may be the effect or the level left. Type of experiment: functional.
For experiment [18], the system named is Mus musculus. Description: Antinociception activity in mouse model assessed as reduction in thermal hypersensitivity at 2 to 50 mg/kg, ip by hot plate test. Type of experiment: functional, organism-based. As to conditions: dose 2-50 mg/kg. Background: In hot-plate and tail-flick tests a longer latency is read as antinociception.
Experiment [19] in a line: Reduction of ATP and Kcl-induced increase in cytosolic Ca2+ ion concentration mouse […] assessed as neuron population at 10 uM measured after 1 hr by Fura2AM dye based fluorescence microscopic analysis. In kind it is functional. Also on record: scale not given: the % may be the effect or the level left.
In experiment [20] the test system is Mus musculus. Description: Antinociceptive activity in mouse assessed as total number of responses at 2 to 50 mg/kg, ip by Von Frey test. Type of experiment: functional, organism-based. To be noted: dose 2-50 mg/kg.

Each structure is given as a SMILES string. Activity calls are given as the source filed them.

Sequence of GABA A receptor alpha-4/beta-3/gamma-2 (P28472 whole entry, one chain of several): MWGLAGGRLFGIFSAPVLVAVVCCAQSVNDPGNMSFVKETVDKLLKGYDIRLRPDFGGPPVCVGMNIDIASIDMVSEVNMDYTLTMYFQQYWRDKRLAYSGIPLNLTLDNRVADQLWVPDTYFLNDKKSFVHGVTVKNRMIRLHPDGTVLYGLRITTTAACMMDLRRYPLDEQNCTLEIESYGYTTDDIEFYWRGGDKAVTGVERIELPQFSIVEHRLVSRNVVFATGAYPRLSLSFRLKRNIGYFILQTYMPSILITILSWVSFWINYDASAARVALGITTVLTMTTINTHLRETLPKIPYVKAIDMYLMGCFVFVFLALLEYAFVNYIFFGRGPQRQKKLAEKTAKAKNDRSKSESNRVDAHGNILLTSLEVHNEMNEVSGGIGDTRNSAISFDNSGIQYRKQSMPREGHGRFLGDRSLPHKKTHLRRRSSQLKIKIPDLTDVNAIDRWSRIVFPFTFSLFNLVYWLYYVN
Sequence of GABA A receptor alpha-4/beta-3/gamma-2 (P48169 whole entry, one chain of several): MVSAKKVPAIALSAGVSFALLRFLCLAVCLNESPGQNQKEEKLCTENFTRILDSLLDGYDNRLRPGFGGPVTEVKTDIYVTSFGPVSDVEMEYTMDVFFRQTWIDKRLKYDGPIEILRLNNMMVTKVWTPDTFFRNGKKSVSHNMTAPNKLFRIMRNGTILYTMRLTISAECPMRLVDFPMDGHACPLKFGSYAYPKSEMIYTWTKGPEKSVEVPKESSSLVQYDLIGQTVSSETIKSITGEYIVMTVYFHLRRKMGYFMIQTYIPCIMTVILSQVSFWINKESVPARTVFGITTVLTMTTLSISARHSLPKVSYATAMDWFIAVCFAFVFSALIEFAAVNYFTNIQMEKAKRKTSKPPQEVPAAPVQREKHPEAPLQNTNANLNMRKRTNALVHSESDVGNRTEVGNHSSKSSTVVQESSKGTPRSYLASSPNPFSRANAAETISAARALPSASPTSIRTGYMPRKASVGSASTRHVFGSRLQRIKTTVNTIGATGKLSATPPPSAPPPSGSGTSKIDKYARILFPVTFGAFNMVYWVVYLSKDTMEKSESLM

As for `CC(C)CCC[C@@H](C)[C@H]1CC[C@H]2[C@@H]3C(=O)C=C4C=CCC[C@]4(C)[C@H]3CC[C@]12C`, the result in the experiment on Neuron [1], with Neuron [8], in the experiment with Neuron [9], in the experiment on Neuron [10], in the experiment on Neuron [12] and with Neuron [15] was Active. For the same compound, the outcome in the experiment on Neuron [16], in the experiment with Mus musculus [18] and in the experiment with Mus musculus [20] was Active. Moreover, the half-maximal inhibitory concentration (IC50) in experiment [2] was 1000 nM; in experiment [5], 1500 nM. Moreover, the outcome in the experiment on Mus musculus [3] was inactive. Further, the Activity in experiment [4] came to 4%; in experiment [6], 33%; in experiment [7] it was 39%; in [11] it was 9%; in experiment [13], 56%; in experiment [14], 7%. For the same compound, the Activity in experiment [17] is reported as 4%; in [19], 14%.

What is called IC50 is the concentration at which inhibition is half-maximal.
